Columns and labels:
Type in all cases: functional
[1] = test system: Olepa ricini; assay: Antifeedant activity against Olepa ricini fed on compound pre-treated castor leaves assessed as percent feeding index at 1 ug/cm2 by dual choice leaf disk method
[2] = test system: Olepa ricini; assay: Antifeedant activity against Olepa ricini fed on compound pre-treated castor leaves assessed as duration of development of pupa at 0.5 ug/cm2 by dual choice leaf disk method (reference value: 7.5 +/- 0.3 days)
[3] = test system: Olepa ricini; assay: Antifeedant activity against Olepa ricini fed on compound pre-treated castor leaves assessed as percent feeding index at 5 ug/cm2 by dual choice leaf disk method
[4] = test system: Olepa ricini; assay: Antifeedant activity against Olepa ricini fed on compound pre-treated castor leaves assessed as percent feeding index at 50 ug/cm2 by dual choice leaf disk method
[5] = test system: Olepa ricini; assay: Antifeedant activity against Olepa ricini fed on compound pre-treated castor leaves assessed as pupal weight at 0.5 ug/cm2 by dual choice leaf disk method (reference value: 476 +/- 10.6 mg)
[6] = test system: Olepa ricini; assay: Antifeedant activity against Olepa ricini fed on compound pre-treated castor leaves assessed as percent feeding index at 10 ug/cm2 by dual choice leaf disk method
[7] = test system: Olepa ricini; assay: Antifeedant activity against Olepa ricini fed on compound pre-treated castor leaves assessed as duration of development of third-instar larvae at 0.5 ug/cm2 by dual choice leaf disk method (reference value: 4.5 +/- 0.7 days)
[8] = test system: Olepa ricini; assay: Antifeedant activity against Olepa ricini fed on compound pre-treated castor leaves assessed as duration of development of fifth-instar larvae at 0.5 ug/cm2 by dual choice leaf disk method (reference value: 4.5 +/- 0.4 days)
[9] = test system: Olepa ricini; assay: Antifeedant activity against Olepa ricini fed on compound pre-treated castor leaves assessed as insect mortality at 0.5 ug/cm2 by dual choice leaf disk method (reference value: 4%); settings: foliar
[10] = test system: Olepa ricini; assay: Antifeedant activity against Olepa ricini fed on compound pre-treated castor leaves assessed as duration of development of fourth-instar larvae at 0.5 ug/cm2 by dual choice leaf disk method (reference value: 7.5 +/- 0.2 days)
[11] = test system: Olepa ricini; assay: Antifeedant activity against Olepa ricini fed on compound pre-treated castor leaves assessed as duration of development of fourth-instar larvae at 1 ug/cm2 by dual choice leaf disk method (reference value: 7.5 +/- 0.2 days)
[12] = test system: Olepa ricini; assay: Antifeedant activity against Olepa ricini fed on compound pre-treated castor leaves assessed as insect mortality at 1 ug/cm2 by dual choice leaf disk method (reference value: 4%); settings: foliar
[13] = test system: Olepa ricini; assay: Antifeedant activity against Olepa ricini fed on compound pre-treated castor leaves assessed as pupal weight at 1 ug/cm2 by dual choice leaf disk method (reference value: 476 +/- 10.6 mg)
[14] = test system: Olepa ricini; assay: Antifeedant activity against Olepa ricini fed on compound pre-treated castor leaves assessed as duration of development of pupa at 1 ug/cm2 by dual choice leaf disk method (reference value: 7.5 +/- 0.3 days)
[15] = test system: Olepa ricini; assay: Antifeedant activity against Olepa ricini fed on compound pre-treated castor leaves assessed as duration of development of third-instar larvae at 1 ug/cm2 by dual choice leaf disk method (reference value: 4.5 +/- 0.7 days)
[16] = test system: Olepa ricini; assay: Antifeedant activity against Olepa ricini fed on compound pre-treated castor leaves assessed as duration of development of fifth-instar larvae at 1 ug/cm2 by dual choice leaf disk method (reference value: 4.5 +/- 0.4 days)

| SMILES | FI [1] [%] | Time [2] [days] | FI [3] [%] | FI [4] [%] | Activity [5] [mg] | FI [6] [%] | Time [7] [days] | Time [8] [days] | mortality at 0.5 µg/cm2 [9] [%] | Time [10] [days] | Time [11] [days] | mortality at 1 µg/cm2 [12] [%] | Activity [13] [mg] | Time [14] [days] | Time [15] [days] | Time [16] [days] |
| --- | --- | --- | --- | --- | --- | --- | --- | --- | --- | --- | --- | --- | --- | --- | --- | --- |
| C/C=C(\C)C(=O)O[C@H]1C[C@@H](OC(C)=O)[C@@]2(C(=O)OC)CO[C@H]3[C@@H](O)[C@@](C)([C@]45O[C@@]4(C)[C@H]4C[C@@H]5O[C@@H]5OC=C[C@@]54O)[C@H]4[C@]1(CO[C@]4(O)C(=O)OC)[C@@H]32 [AZADIRACTIN] | 20.8 | 7.4 | 15.6 | 10 | 344 | 12.5 | 7 | 5.7 | 16 | 8.6 | – | – | – | – | – | – |
| C=C1[C@@H]([C@@]2(C)C=CC(=O)OC(C)(C)[C@@H]2CC(=O)OC)[C@@H](OC(C)=O)[C@H](OC(C)=O)[C@@]2(C)[C@@H](c3ccoc3)C[C@H]3O[C@]132 [NYMANIA] | 33.5 | – | 30 | 19.5 | – | 23.4 | – | – | – | – | 8.8 | 16 | 428 | 7.4 | 6.8 | 5.3 |

Source: ChEMBL document CHEMBL3045651, “Nymania-3: a bioactive triterpenoid from Dysoxylum malabaricum” (1999)
